Several values for one entry are separate records, joined by “and”; a condition that tells them apart may be missing. Equal values may be shown once.
What was measured:
Assay in all cases: Post-emergence application in field trials, herbicidal activity (damage scale 0 to 100%)
Type in all cases: in vivo
Sorghum vulgare (SORVU) = details: height 20-25 cm, 14 DAT, Table 3.1
Experimental: (§1) In the examples below, using the method of S. R. Colby (1967) “Calculating synergistic and antagonistic responses of herbicide combinations”, Weeds 15, p. 22ff., the value E, which is expected if the activity of the individual active compounds is only additive, was calculated:
(§2) [formula] • wherein • X=percent activity using active herbicide A at an application rate a; • Y=percent activity using active herbicide B (e.g. pyroxasulfone) at an application rate b; • E=expected activity (in %) by A+B at application rates a+b.
(§3) If the value found experimentally is higher than the value E calculated according to Colby, a synergistic effect is present.
(§4) On field test sites, natural weed infestation or seeded weeds were treated post-emergence of the weeds.
(§5) In the field trials, the weeds were treated as indicated below.
(§6) In the following experiments, the herbicidal activity for the individual herbicidal compositions (solo and mixture applications) was assessed at the indicated days after treatment (DAT). The assessments for the damage on undesired weeds caused by the composition was carried out using a scale from 0 to 100%, compared to the untreated control plants. Here, 0 means no damage and 100 means complete destruction of the plants.
(§7) Herbicide A-1 (300 g/l) and pyroxasulfone (85% WG) were, together with addition of 0.25 l/ha Dash® MSO Max as adjuvant, formulated in water as distribution medium (water volume 200 l/ha) and sprayed with commercial flat fan nozzles.

[1] = test system: Echinochloa colonum (ECHCO); details: height 20-25 cm, 25 DAT, Table 3.2
Experimental: as §1, §2, §3, §4, §5, §6, §7

[2] = test system: Amaranthus cruentus (AMACR); details: height 20-25 cm
Experimental: as §1, §2, §3, §4, §5, §6, §7

[3] = test system: Amaranthus hybridus (AMACH); details: height 20-25 cm, 14 DAT, Table 3.1
Experimental: as §1, §2, §3, §4, §5, §6, §7

Senecio vulgaris (SENVU) = details: growth stage 61-62, height 25-30 cm
Outline: (§8)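 Field sites with natural or seeded weeds were sprayed post-emergence via flat fan nozzles in 200 l/ha water plus 0.25 v/v % MSO adjuvant, solo or mixed with pyroxasulfone and other partners. Damage was scored 0–100% versus untreated plants at indicated DAT. Colby expected values were used to judge synergy.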

Glycine max (GLXMA) = test system: Glycine max (GLXMA)
Outline: as §8

[4] = test system: Echinochloa crus-galli (ECHCG)
Experimental: as §1, §2, §3, §4, §5, §6
(§9) Herbicide A-1 (50 g/l) and pyroxasulfone (85% WG) were, together with addition of 0.5% MSO (methylated seed oil) as adjuvant, formulated in water as distribution medium (water volume 200 l/ha) and sprayed with commercial flat fan nozzles.

[5] = test system: Amaranthus viridis (AMAVI); details: growth stage 16-18, height 10-15 cm, 20 DAT, Table 2.1
Experimental: as §1, §2, §3, §4, §5, §6, §9

[6] = test system: Brachiaria plantaginea (BRAPL); details: growth stage 21-25, height 10-15 cm, 20 DAT, Table 2.1
Experimental: as §1, §2, §3, §4, §5, §6, §9

[7] = test system: Galinsoga parviflora (GASPA); details: height 15-35 cm, 21 DAT, Table 2.4
Experimental: as §1, §2, §3, §4, §5, §6, §9

[8] = test system: Portulaca oleracea (POROL); details: growth stage 14-16, height 5-10 cm, 20 DAT, Table 2.1
Experimental: as §1, §2, §3, §4, §5, §6, §9

[9] = test system: Amaranthus palmeri (AMAPA); details: height 30 cm, 21 DAT, Table 1.1
Experimental: as §1, §2, §3, §4, §5
In the following experiments, the herbicidal activity for the individual herbicidal compositions (solo and mixture applications) was assessed at the indicated days after treatment (DAT). The assessments for the damage on undesired weeds caused by the composition was carried out using a scale from 0 to 100%, compared to the untreated control plants. Here, 0 means no damage and 100 means complete destruction of the plants. […]

[10] = 7 DAT, stage 12-13, height 7-11 cm, g ai/ha A-1 12.5, B 70, C-4 12.5
[11] = 42 DAT, stage 12-13, height 7-11 cm, g ai/ha A-1 18, B 70
[12] = 42 DAT, stage 12-13, height 7-11 cm, g ai/ha A-1 18, B 90
[13] = 7 DAT, stage 23-30, height 15-20 cm, g ai/ha A-1 12.5, B 70, C-12 252
[14] = 21 DAT, stage 23-30, height 15-20 cm, g ai/ha A-1 12.5, B 70, C-12 252
[15] = 28 DAT, stage 23-30, height 15-20 cm, g ai/ha A-1 12.5, B 70, C-12 252
[16] = Table 8.2, 21 DAT, stage 23-30, height 15-20 cm, g ai/ha A-1 18, B 70, C-12 1066
[17] = Table 8.2, 21 DAT, stage 23-30, height 15-20 cm, g ai/ha A-1 18, B 90, C-12 1066
[18] = Table 8.3, 28 DAT, stage 23-30, height 15-20 cm, g ai/ha A-1 18, B 70, C-12 1066
[19] = Table 8.3, 28 DAT, stage 23-30, height 15-20 cm, g ai/ha A-1 18, B 90, C-12 1066

SMILES: Cn1nc(C(F)(F)F)c(CS(=O)(=O)C2=NOC(C)(C)C2)c1OC(F)F [B, pyroxasulfone]
- % Herbicidal activity (Sorghum vulgare (SORVU); B 120 g ai/ha): 5%
- % Herbicidal activity ([1]; B 120 g ai/ha): 12%
- % Herbicidal activity ([2]; B 120 g ai/ha, 14 DAT, Table 3.1): 13%
- % Herbicidal activity ([2]; B 120 g ai/ha, 25 DAT, Table 3.2): 16%
- % Herbicidal activity ([3]; B 120 g ai/ha): 16%
- % Herbicidal activity (Senecio vulgaris (SENVU); B 70 g ai/ha, 7 DAT, Table 4.2): 30%
- % Herbicidal activity (Senecio vulgaris (SENVU); B 70 g ai/ha, 21 DAT, Table 4.4): 20% and 10%
- % Herbicidal activity (Senecio vulgaris (SENVU); B 90 g ai/ha, 21 DAT, Table 4.4): 20%
- % Herbicidal activity (Glycine max (GLXMA); [10]): 0%
- % Herbicidal activity (Glycine max (GLXMA); [11]): 0%
- % Herbicidal activity (Glycine max (GLXMA); [12]): 0%
- % Herbicidal activity (Glycine max (GLXMA); GLXMA, growth stage 12-13, height 7-11 cm, B 70 g ai/ha, 7 DAT, Table 4.1): 0%
- % Herbicidal activity (Glycine max (GLXMA); GLXMA, growth stage 12-13, height 7-11 cm, B 70 g ai/ha, 21 DAT, Table 4.3): 0%
- % Herbicidal activity (Glycine max (GLXMA); GLXMA, growth stage 12-13, height 7-11 cm, B 90 g ai/ha, 7 DAT, Table 4.1): 0%
- % Herbicidal activity (Glycine max (GLXMA); GLXMA, growth stage 12-13, height 7-11 cm, B 90 g ai/ha, 21 DAT, Table 4.3): 0%
- % Herbicidal activity [4, 13]: 10%
- % Herbicidal activity [4, 14]: 10%
- % Herbicidal activity [4, 15]: 10%
- % Herbicidal activity ([4]; ECHCG, height 20-25 cm, B 120 g ai/ha, 21 DAT, Table 2.3): 0%
- % Herbicidal activity [4, 16]: 0%
- % Herbicidal activity [4, 17]: 0%
- % Herbicidal activity [4, 18]: 0%
- % Herbicidal activity [4, 19]: 0%
- % Herbicidal activity ([5]; B 120 g ai/ha): 0%
- % Herbicidal activity ([6]; B 120 g ai/ha): 0%
- % Herbicidal activity ([7]; B 120 g ai/ha): 0%
- % Herbicidal activity ([8]; B 120 g ai/ha): 0%
- % Herbicidal activity ([9]; B 120 g ai/ha): 2%

SMILES: CP(=O)(O)CC[C@H](N)C(=O)O.N [C-12, glufosinate-P-ammonium]
- % Herbicidal activity [4, 13]: 70%
- % Herbicidal activity [4, 14]: 60%
- % Herbicidal activity [4, 15]: 60%
- % Herbicidal activity [4, 16]: 10%
- % Herbicidal activity [4, 17]: 10%
- % Herbicidal activity [4, 18]: 10%
- % Herbicidal activity [4, 19]: 10%

SMILES: CCOC(=O)COc1ccccc1Oc1nc(-n2c(=O)cc(C(F)(F)F)n(C)c2=O)c(F)cc1Cl [A-1, ethyl 2-[2-[[3-chloro-5-fluoro-6-[3-methyl-2,6-dioxo-4-(trifluoromethyl)pyrimidin-1-yl]-2-pyridyl]oxy]phenoxy]acetate]
- % Herbicidal activity (Sorghum vulgare (SORVU); A-1 50 g ai/ha): 88%
- % Herbicidal activity ([1]; A-1 50 g ai/ha): 55%
- % Herbicidal activity ([2]; A-1 25 g ai/ha, 14 DAT, Table 3.1): 88%
- % Herbicidal activity ([2]; A-1 25 g ai/ha, 25 DAT, Table 3.2): 89%
- % Herbicidal activity ([2]; A-1 50 g ai/ha, 14 DAT, Table 3.1): 91%
- % Herbicidal activity ([2]; A-1 50 g ai/ha, 25 DAT, Table 3.2): 91%
- % Herbicidal activity ([3]; A-1 50 g ai/ha): 87%
- % Herbicidal activity (Senecio vulgaris (SENVU); A-1 12.5 g ai/ha, 7 DAT, Table 4.2): 90%
- % Herbicidal activity (Senecio vulgaris (SENVU); A-1 12.5 g ai/ha, 21 DAT, Table 4.4): 40%
- % Herbicidal activity (Senecio vulgaris (SENVU); A-1 18 g ai/ha, 21 DAT, Table 4.4): 40%
- % Herbicidal activity (Glycine max (GLXMA); [10]): 90%
- % Herbicidal activity (Glycine max (GLXMA); [11]): 95%
- % Herbicidal activity (Glycine max (GLXMA); [12]): 95%
- % Herbicidal activity (Glycine max (GLXMA); GLXMA, growth stage 12-13, height 7-11 cm, A-1 12.5 g ai/ha, 7 DAT, Table 4.1): 90%
- % Herbicidal activity (Glycine max (GLXMA); GLXMA, growth stage 12-13, height 7-11 cm, A-1 12.5 g ai/ha, 21 DAT, Table 4.3): 95%
- % Herbicidal activity (Glycine max (GLXMA); GLXMA, growth stage 12-13, height 7-11 cm, A-1 18 g ai/ha, 7 DAT, Table 4.1): 90%
- % Herbicidal activity (Glycine max (GLXMA); GLXMA, growth stage 12-13, height 7-11 cm, A-1 18 g ai/ha, 21 DAT, Table 4.3): 92%
- % Herbicidal activity [4, 13]: 30%
- % Herbicidal activity [4, 14]: 30%
- % Herbicidal activity [4, 15]: 30%
- % Herbicidal activity ([4]; ECHCG, height 20-25 cm, A-1 25 g ai/ha, 21 DAT, Table 2.3): 60%
- % Herbicidal activity [4, 16]: 30%
- % Herbicidal activity [4, 17]: 30%
- % Herbicidal activity [4, 18]: 30%
- % Herbicidal activity [4, 19]: 30%
- % Herbicidal activity ([5]; A-1 25 g ai/ha): 71%
- % Herbicidal activity ([5]; A-1 50 g ai/ha): 83%
- % Herbicidal activity ([6]; A-1 25 g ai/ha): 49%
- % Herbicidal activity ([7]; A-1 25 g ai/ha): 82%
- % Herbicidal activity ([7]; A-1 50 g ai/ha): 94%
- % Herbicidal activity ([8]; A-1 50 g ai/ha): 60%
- % Herbicidal activity ([9]; A-1 25 g ai/ha): 85%
